How the values were obtained:
[1] = tested on: T1, AT2 receptor; format: binding, rat
T1 construct: expressed in transfected cells

[2] = molecular target: T2, AT1 receptor (Homo sapiens, UniProt P30556)
T2 sequence (P30556 1-359): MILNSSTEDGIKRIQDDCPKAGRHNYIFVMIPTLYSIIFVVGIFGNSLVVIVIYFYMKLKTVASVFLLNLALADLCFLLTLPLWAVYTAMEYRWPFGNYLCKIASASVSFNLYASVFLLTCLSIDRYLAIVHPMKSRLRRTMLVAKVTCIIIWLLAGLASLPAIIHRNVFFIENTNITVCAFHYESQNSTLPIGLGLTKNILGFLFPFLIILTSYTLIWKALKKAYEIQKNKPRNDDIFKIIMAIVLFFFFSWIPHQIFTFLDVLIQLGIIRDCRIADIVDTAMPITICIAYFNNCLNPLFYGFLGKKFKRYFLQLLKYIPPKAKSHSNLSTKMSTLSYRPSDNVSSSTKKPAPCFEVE

[3] = molecular target: T2, AT1 receptor; assay: cell-based; format: cell-based; design: expressed in transfected cells; host or cells: HEK293T
[4] = molecular target: T2, AT1 receptor; format: cell-based; design: expressed in transfected cells; host or cells: HEK293T

Structure (SMILES)	non-specific labelling of cells compared to total labelling with Cy5-AngII alone, AT2 [1] [%]	increase in BRET signal (β-arrestin 2 recruitment) by the substance alone [2]	inhibition of AngII-induced β-arrestin 2 BRET signal, 1 µM candesartan [2]	activation of Gαi3 by the substance alone [3]	inhibition of AngII-induced Gαi3 activation, 1 µM candesartan [3]	activation of GαoA pathway by the substance alone [4]	inhibition of AngII-induced GαoA activation, 1 µM candesartan [4]
CC[C@H](C)[C@H](NC(=O)[C@H](Cc1ccc(O)cc1)NC(=O)[C@@H](NC(=O)[C@H](CCCNC(=N)N)NC(=O)[C@@H](N)CC(=O)O)C(C)C)C(=O)N[C@@H](Cc1c[nH]cn1)C(=O)N1CCC[C@H]1C(=O)N[C@@H](Cc1ccccc1)C(=O)O [AngII, angiotensin II]	7	–	–	–	–	–	–
CCOc1nc2cccc(C(=O)O)c2n1Cc1ccc(-c2ccccc2-c2nnn[nH]2)cc1 [candesartan]	–	Neither the candesartan nor the toxin alone could induce an increase in the BRET signal	completely inhibits	Neither candesartan, an AT1 receptor antagonist, nor the toxin alone could induce the activation of Gαi3	fully inhibited	Neither the toxin nor the candesartan alone can induce activation of this pathway	blocked

Source: PMC9916866 (International Journal of Molecular Sciences, 2023)
